The source made the active and inactive calls. Rule as the data show it, for most assays here: actives have a measured EC50 and inactives only a lower limit.
What was measured:
[1] = target: Induced myeloid leukemia cell differentiation protein Mcl-1 (Homo sapiens, UniProt Q07820); assay type: functional
Genome polyprotein = Genome polyprotein (dengue virus type 2, UniProt P29990); test: flavivirus cap methylation enzyme inhibition – biochemical, confirmation dose response, primary screen (AID 588689); assay type: functional
Genome polyprotein, sequence (P29990 2492-3391 limits assumed): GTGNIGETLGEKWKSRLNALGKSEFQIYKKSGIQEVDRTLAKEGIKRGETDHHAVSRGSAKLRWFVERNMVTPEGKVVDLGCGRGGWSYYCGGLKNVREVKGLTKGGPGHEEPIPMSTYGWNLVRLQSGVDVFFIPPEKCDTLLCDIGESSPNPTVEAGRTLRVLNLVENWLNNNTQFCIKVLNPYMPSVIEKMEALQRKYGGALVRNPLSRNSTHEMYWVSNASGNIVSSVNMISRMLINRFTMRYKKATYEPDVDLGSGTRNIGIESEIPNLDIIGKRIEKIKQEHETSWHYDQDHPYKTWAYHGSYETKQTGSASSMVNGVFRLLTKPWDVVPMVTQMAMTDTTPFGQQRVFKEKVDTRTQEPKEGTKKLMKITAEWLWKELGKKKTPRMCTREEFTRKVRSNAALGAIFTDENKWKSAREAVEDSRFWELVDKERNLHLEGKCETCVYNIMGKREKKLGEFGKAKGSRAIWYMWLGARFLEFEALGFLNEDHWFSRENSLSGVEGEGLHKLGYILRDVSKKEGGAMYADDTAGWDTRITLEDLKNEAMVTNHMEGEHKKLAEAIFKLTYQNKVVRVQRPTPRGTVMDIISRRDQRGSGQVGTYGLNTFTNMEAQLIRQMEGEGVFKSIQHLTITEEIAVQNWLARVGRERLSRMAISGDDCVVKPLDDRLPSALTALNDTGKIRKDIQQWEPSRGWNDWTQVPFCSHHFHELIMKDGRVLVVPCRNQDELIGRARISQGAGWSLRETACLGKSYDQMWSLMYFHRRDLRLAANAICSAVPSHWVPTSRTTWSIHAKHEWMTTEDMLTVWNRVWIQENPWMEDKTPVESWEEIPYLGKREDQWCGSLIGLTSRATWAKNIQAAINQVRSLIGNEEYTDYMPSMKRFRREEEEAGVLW

[2] = HPDE-C7 pancreatic duct cell viability loss – fluorescence, HTS (AID 430); assay type: functional, cell-based; conditions: Homo sapiens
[3] = viability loss of HPDE-C7K cells – cell-based, fluorescence, HTS, primary screen (AID 431); assay type: functional; conditions: Homo sapiens
[4] = viability of PTEN-deleted HCT116 cells – cell-based, HCT116 PTEN knockout, dose response (AID 1047); assay type: functional;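 also: HCT116 colon tumor cells with PTEN knocked out; cells exposed to compound for 60 hours before readout; potency for loss of cell viability measured by luminescence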
[5] = viability of HCT116 lacking mutant beta-catenin – cell-based, human colon tumor, dose response (AID 1045); assay type: functional;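 also: HCT116 colon tumor cells with beta catenin knocked out; cells exposed to compound for 60 hours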
[6] = target: Heat shock protein HSP 90-alpha (Homo sapiens, UniProt P07900); assay type: functional, organism-based
[7] = microbe, parasite or virus in culture; assay type: functional; conditions: Mycobacterium tuberculosis
Leucine aminopeptidase = target: T1, Leucine aminopeptidase (Plasmodium falciparum 3D7, UniProt Q8IL11); test: P. falciparum M17LAP inhibitors, primary screen, biochemical, fluorogenic H-Leu-NHMec substrate, 1536-well (AID 1619); assay type: functional
T1 sequence (Q8IL11 whole entry): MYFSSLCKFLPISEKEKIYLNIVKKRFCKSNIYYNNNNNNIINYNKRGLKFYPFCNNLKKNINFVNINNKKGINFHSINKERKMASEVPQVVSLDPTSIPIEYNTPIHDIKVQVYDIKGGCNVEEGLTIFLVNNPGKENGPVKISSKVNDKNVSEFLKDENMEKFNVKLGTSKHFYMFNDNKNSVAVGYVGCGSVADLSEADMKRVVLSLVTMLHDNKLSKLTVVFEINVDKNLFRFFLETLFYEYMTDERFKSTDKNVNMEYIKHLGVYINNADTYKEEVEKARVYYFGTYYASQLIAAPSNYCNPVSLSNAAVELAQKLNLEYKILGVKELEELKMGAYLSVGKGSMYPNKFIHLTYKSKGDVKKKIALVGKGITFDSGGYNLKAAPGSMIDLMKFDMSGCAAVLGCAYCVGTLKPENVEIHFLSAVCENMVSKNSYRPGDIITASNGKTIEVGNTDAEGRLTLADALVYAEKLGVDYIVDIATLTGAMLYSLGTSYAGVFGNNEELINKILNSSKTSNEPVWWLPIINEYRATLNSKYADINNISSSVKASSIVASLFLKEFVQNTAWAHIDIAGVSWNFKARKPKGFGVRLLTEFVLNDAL

[8] = target: T2, RNA-binding protein pos-1 (Caenorhabditis elegans, UniProt G5EF15); test: disruptors of C. elegans POS-1 RNA interaction – biochemical, fluorescence polarization, dose response (AID 1964);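 also: purified POS-1 fused to maltose binding protein made in E. coli; potency of compounds blocking POS-1 binding to fluorescent RNA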
T2 sequence (G5EF15 whole entry): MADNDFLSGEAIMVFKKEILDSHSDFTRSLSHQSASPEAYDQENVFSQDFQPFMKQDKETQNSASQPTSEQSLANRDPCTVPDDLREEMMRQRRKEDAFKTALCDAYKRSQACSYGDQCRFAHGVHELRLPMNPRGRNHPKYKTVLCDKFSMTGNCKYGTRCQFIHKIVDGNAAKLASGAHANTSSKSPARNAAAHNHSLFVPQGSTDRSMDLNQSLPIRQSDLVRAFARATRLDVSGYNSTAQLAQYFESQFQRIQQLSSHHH

[9] = target: T3, Zinc finger protein mex-5 (Caenorhabditis elegans, UniProt Q9XUB2); test: potency of MEX-5 RNA-binding blockers – biochemical, C. elegans, fluorescence polarization, dose response (AID 1960)
T3 sequence (Q9XUB2 whole entry): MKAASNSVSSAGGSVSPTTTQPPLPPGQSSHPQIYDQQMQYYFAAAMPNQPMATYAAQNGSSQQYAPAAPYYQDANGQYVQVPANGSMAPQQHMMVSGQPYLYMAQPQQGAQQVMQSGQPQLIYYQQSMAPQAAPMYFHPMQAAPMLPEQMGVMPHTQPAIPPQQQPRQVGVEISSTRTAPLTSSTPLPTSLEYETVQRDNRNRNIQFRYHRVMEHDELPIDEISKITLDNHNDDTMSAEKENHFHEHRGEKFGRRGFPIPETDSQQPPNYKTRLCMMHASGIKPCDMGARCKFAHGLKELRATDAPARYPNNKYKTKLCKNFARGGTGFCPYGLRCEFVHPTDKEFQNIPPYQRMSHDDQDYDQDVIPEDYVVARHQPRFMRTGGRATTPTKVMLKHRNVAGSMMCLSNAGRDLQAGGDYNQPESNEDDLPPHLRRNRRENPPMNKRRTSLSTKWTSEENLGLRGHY

[10] = target: T4, Carboxy-terminal domain RNA polymerase II polypeptide A small phosphatase 1 (Homo sapiens, UniProt Q9GZU7); test: CTDSP1 inhibitors, concentration-response, biochemical, absorbance readout, ultra-high-throughput screen actives (AID 540297); assay type: functional
T4 sequence (Q9GZU7 whole entry): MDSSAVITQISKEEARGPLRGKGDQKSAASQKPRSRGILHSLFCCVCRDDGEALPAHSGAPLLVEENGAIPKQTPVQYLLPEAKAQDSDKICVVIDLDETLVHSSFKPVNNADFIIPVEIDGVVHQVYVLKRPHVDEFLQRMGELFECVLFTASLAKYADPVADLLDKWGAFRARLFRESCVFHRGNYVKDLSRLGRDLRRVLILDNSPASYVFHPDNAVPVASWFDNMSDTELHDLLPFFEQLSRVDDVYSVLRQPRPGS

[11] = target: T5, Histone-lysine N-methyltransferase NSD2 (Homo sapiens, UniProt O96028); assay type: biochemical
T5 sequence (O96028 whole entry): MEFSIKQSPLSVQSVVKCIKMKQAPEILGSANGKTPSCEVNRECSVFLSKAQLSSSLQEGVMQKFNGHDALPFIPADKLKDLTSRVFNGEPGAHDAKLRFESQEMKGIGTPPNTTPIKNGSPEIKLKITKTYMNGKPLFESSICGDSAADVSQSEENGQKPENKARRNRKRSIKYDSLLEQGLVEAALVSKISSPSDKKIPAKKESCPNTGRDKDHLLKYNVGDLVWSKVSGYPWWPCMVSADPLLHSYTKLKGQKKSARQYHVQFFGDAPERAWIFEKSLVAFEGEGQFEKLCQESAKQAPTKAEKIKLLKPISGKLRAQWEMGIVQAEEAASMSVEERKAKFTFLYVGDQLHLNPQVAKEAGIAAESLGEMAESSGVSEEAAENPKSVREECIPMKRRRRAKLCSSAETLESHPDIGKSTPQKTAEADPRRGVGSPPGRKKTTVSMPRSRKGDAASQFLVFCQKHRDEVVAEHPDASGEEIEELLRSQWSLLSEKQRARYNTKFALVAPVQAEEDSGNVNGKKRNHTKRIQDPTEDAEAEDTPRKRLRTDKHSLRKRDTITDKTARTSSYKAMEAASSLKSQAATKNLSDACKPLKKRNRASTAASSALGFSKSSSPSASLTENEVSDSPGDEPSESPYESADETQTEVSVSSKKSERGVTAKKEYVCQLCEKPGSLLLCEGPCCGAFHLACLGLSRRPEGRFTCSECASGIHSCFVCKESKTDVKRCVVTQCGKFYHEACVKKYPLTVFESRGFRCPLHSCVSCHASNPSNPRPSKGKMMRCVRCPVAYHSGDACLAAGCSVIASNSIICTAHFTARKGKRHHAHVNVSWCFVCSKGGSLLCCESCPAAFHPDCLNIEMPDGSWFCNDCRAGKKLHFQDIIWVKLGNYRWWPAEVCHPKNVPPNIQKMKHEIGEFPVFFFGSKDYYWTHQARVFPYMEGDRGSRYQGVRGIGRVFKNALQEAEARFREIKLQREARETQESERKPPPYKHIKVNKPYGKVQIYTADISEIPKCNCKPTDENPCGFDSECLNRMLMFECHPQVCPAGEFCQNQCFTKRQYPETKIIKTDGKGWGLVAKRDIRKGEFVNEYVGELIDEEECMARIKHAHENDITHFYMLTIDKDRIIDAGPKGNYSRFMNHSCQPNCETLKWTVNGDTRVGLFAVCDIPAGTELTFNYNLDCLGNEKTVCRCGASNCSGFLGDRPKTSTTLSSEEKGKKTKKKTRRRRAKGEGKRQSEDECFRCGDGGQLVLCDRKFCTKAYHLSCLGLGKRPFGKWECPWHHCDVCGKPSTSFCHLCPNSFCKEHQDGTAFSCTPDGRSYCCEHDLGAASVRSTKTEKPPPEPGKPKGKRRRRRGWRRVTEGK

[12] = luciferase reporter signal suppression in cells – H4 neuroglioma cells, luminescence, dose response (AID 1990); assay type: functional, cell-based
[13] = Luminescence Cell-Based Dose Response HTS to Identify Inhibitors of 5'UTR Stem-Loop Driven Prion Protein mRNA Translation in H4 Neuroglioblastoma Cells. [Related pubchem assays: 1827 (Project Summary), 1813 (Primary HTS)]; assay type: functional
[14] = alpha-synuclein stem-loop luciferase translation blockers – H4 neuroglioma cells, luminescence, confirmation (AID 1988); assay type: functional, cell-based
INS1 = test: INS-1E survival protection against cytokine death – cell-based, luminescence, retest, dose response (AID 449756); assay type: functional; conditions: Rattus norvegicus;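 also: cell death triggered by IL-1 beta plus TNF-alpha plus IFN-gamma mixture; protective hits raise ATP signal compared with cytokine alone wells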
Nonstructural protein 1 = Nonstructural protein 1 (Influenza A virus, UniProt Q194T2); assay type: functional, Influenza A virus (A/California/07/2009(H1N1))
Nonstructural protein 1, sequence (Q194T2 whole entry): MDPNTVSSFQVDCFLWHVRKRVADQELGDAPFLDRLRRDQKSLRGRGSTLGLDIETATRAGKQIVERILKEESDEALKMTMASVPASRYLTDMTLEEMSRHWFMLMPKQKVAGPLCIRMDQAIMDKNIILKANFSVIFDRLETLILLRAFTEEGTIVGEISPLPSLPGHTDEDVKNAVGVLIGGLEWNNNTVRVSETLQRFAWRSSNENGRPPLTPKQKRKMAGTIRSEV

[15] = tested on: Streptococcus sp. 'group A'; test: Streptococcus pyogenes SK(-)GAS viability under kanamycin – luminescence, BacTiterGlo, confirmation, counter-screen for streptokinase expression inhibitor project, dose response (AID 1900); assay type: functional, organism-based
[16] = Trypanosoma cruzi growth suppression in host cells – NIH3T3 host cells, beta-gal luminescence, confirmation (AID 2044); assay type: functional, cell-based;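 also: intracellular parasites grown in NIH/3T3 mouse fibroblasts as host cells; luminescent beta-galactosidase reporter signal from transgenic T. cruzi replicating inside host cells; inhibitors lower the luminescence signal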
[17] = NIH3T3 cell viability loss – ATP luminescence, mouse fibroblasts, counter-screen, dose response (AID 2010); assay type: functional, cell-based;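 also: cells exposed to compound for about 90 hours before reading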
Streptococcus = test: GAS UMAA2166 growth inhibition – luminescence, BacTiterGlo, counter-screen for streptokinase expression inhibitor project, dose response (AID 1915); assay type: functional, organism-based;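 also: potency for reduction of bacterial viability or growth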
[18] = target: Luciferin 4-monooxygenase (Photinus pyralis, UniProt P08659); test: inhibition of purified Photinus pyralis luciferase – biochemical, luminescence, dose response (AID 1891)
Luciferin 4-monooxygenase, sequence (P08659 whole entry): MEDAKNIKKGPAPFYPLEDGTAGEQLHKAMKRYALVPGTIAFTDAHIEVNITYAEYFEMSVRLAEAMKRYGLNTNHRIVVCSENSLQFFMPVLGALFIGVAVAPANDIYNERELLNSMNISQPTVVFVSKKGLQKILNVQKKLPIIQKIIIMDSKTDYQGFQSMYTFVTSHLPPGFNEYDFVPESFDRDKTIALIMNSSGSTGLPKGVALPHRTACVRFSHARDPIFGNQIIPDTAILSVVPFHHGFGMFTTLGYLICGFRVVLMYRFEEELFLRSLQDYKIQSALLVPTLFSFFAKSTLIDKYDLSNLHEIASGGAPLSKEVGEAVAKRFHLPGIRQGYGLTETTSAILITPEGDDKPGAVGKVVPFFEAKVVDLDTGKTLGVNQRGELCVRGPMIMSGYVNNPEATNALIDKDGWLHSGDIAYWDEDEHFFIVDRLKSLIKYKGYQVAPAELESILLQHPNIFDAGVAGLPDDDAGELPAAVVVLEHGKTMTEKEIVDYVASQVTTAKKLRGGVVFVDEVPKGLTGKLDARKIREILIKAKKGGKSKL

[19] = Luminescence Cell-Based Dose Confirmation HTS to Identify Inhibitors of Platelet Dense Granule Release. [Related pubchem assays: 1663 (Primary HTS), 1678 (Summary of Project)]; assay type: functional

Induced myeloid leukemia cell differentiation protein Mcl-1, sequence (Q07820 whole entry): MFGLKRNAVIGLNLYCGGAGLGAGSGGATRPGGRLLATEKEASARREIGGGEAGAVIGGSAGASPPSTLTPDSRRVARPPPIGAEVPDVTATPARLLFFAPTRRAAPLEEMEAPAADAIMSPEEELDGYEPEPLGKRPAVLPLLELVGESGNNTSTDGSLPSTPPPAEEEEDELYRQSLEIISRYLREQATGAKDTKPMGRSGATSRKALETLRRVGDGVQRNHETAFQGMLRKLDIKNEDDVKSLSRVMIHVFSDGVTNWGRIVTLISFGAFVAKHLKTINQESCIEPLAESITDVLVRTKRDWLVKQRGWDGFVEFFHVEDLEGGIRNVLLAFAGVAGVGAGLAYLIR

With `O=C(Cn1nc(C(=O)O)c2ccccc2c1=O)Nc1ccc2c(c1)C(=O)c1ccccc1C2=O` the IC50 [1] was 4.02 µM (active).
In the case of `O=C1NC(=O)C(=Cc2ccccc2[N+](=O)[O-])C(=O)N1`, the IC50 (Genome polyprotein) is reported as 27.3 µM (active).
For `CN1c2ccccc2C(C)(C)C12C=Cc1cc(O)ccc1O2` (stereo not drawn), the EC50 [2] was 15.2 µM (active), the EC50 [3] was > 20 µM (not active) and the EC50 [4] was 36.4 µM (active). For the same compound, the EC50 [5] was 18.4 µM (active).
For `COC(=O)c1ccc(N2C(=O)CC(N(C)Cc3ccccc3)C2=O)cc1` (stereo not drawn), the AC50 [6] was 7.7 µM (active).
For `CC(C)(C)OC(=O)N[C@@H](Cc1ccccc1)c1nnc(S(=O)(=O)Cc2ccccc2)o1`, the EC50 [2] was 16.9 µM (active) and the EC50 [3] was > 20 µM (not active).
In the case of `Cc1ccc2c(c1)c1ncnc(N3CCc4ccccc4C3)c1n2C`, the EC50 [2] is reported as 11.4 µM (active), the CC50 [7] is reported as > 40 µM (active) and the EC50 [3] is reported as 11.7 µM (active).
For `O=C(COC(=O)c1cc(-c2ccco2)nc2ccccc12)NCc1ccc2c(c1)OCO2`, the IC50 [1] was < 0.4 µM (active).
For `Cc1cc(/C=C(/C#N)c2nc3ccccc3[nH]2)c(C)n1-c1cc(C(=O)O)cc(C(=O)O)c1`, the IC50 (Leucine aminopeptidase) was 42.6 µM (active), the EC50 [8] was 59.3 µM (active) and the EC50 [9] was 41.4 µM (active). For the same compound, the IC50 [10] was 5.68 µM (active) and the AC50 [11] was > 20 µM (inactive).
For `O=C1CC2CCCN2C=C1I` (stereo not drawn), the IC50 (Genome polyprotein) was 62.7 µM (active) and the IC50 [10] was 5.48 µM (active).
For `O=C1C([N-]S(=O)(=O)c2cccs2)=C([n+]2ccc(CCCc3ccccc3)cc2)C(=O)c2ccccc21`, the EC50 [12] was 10.5 µM (active), the EC50 [8] was 119 µM (active) and the EC50 [13] was > 120 µM (not active). For the same compound, the EC50 [9] was 97 µM (active), the EC50 [14] was 8.36 µM (active) and the CC50 [7] was 9.69 µM (active). The AC50 (INS1) was 8.75 µM (active).
With `Cc1cc(NC(=O)CSc2nnc(-c3ccco3)o2)no1` the IC50 (Nonstructural protein 1) was 32.4 µM (active).
For `COc1ccccc1/C=C1\SC(=S)N(NS(=O)(=O)c2ccc(C)cc2)C1=O`, the IC50 (Genome polyprotein) was 34.7 µM (active).
In the case of `Cc1cc(C)c(S(=O)(=O)NCC23C=CC(O2)C2C(=O)N(c4ccccc4)C(=O)C23)c(C)c1` (stereo not drawn), the AC50 [6] is reported as 10.1 µM (active).
With `O=C(O)CN1C(=O)/C(=C\c2cccc(OCc3ccc(F)cc3)c2)SC1=S` the IC50 (Genome polyprotein) was 42.6 µM (active).
With `Oc1ccc(CN2CCN(c3ccccc3)CC2)c2cccnc12` the EC50 [12] was 11.9 µM (active), the EC50 [15] was 5.48 µM (active) and the EC50 [13] was 9.95 µM (active). For the same compound, the EC50 [14] was 9.72 µM (active), the EC50 [16] was 1.86 µM (active) and the EC50 [17] was > 60 µM (not active). The EC50 (Streptococcus) was 7.49 µM (active) and the IC50 (Nonstructural protein 1) was 59.1 µM (active).
In the case of `Oc1nccc(N/N=C/c2ccccc2O)n1`, the EC50 [18] is reported as 36.3 µM (active), the EC50 [19] is reported as 4.11 µM (active) and the IC50 (Nonstructural protein 1) is reported as 10.3 µM (active). For the same compound, the AC50 (INS1) was 0.625 µM (active).
